According to ChEMBL document CHEMBL3091401, “Discovery of a potent respiratory syncytial virus RNA polymerase inhibitor” (Bioorg Med Chem Lett, 2013):
In brackets after ≈: the same amount, converted by molar mass.

Columns and labels:
[1] = tested on: Respiratory syncytial virus; test: Antiviral activity against Respiratory syncytial virus A2 infected in human Hep2 cells after 3 days by ELISA; format: functional, organism-based; details: A2, HEp-2, 72 h
[2] = tested on: Respiratory syncytial virus; test: Antiviral activity against Respiratory syncytial virus A2 infected in hamster BHK21 cells after 2 days by luciferase reporter gene assay; format: functional, organism-based; details: human respiratory syncytial virus, A2, BHK-21, 48 h
[3] = Aqueous solubility of the compound; format: physicochemical; details: buffer
[4] = tested on: Respiratory syncytial virus; test: Antiviral activity against Respiratory syncytial virus B-Washington infected in human Hep2 cells after 3 days by ELISA; format: functional, organism-based; details: HEp-2, 72 h
[5] = Cytotoxicity against human Hep2 cells; format: cell-based, HEp-2
[6] = Cytotoxicity against hamster BHK21 cells; format: cell-based, Mesocricetus auratus, BHK-21
[7] = Absorption half life in rat lungs at 10 ug/kg administered intratracheally as solution; format: ADME, tissue-based; details: lung, inhaled or intranasal, 0.01 mg/kg, read-out: t1/2abs

| SMILES | EC50 [1] [µM] | EC50 [2] [µM] | solubility [3] [µM] | EC50 [4] [µM] | CC50 [5] [µM] | CC50 [6] [µM] | half-life [7] [min] |
| --- | --- | --- | --- | --- | --- | --- | --- |
| CN1CC2(CCN(c3ncccc3C(=O)Nc3ccc(C(=O)N4CCc5cc(C(=O)NC6CC6)sc5-c5ccccc54)cc3)CC2)C1 | 34 | 8.5 | 55 (≈ 35.6 µg/mL) | 17 | 34 | – | – |
| O=C(NC1CC1)c1cc2c(s1)-c1ccccc1N(C(=O)c1ccc(NC(=O)c3cccnc3N3CCOCC3)cc1)CC2 | 0.23 | 0.63 | 36 (≈ 21.4 µg/mL) | 17 | > 50 | – | – |
| O=C(NC1CC1)c1cc2c(s1)-c1ccccc1N(C(=O)c1ccc(NC(=O)c3ccccc3N3CCC4(CC3)COC4)cc1)CC2 | < 0.21 | 0.19 | < 1 | > 50 | > 50 | – | – |
| O=C(NC1CC1)c1cc2c(s1)-c1ccccc1N(C(=O)c1ccc(NC(=O)c3cccnc3N3CCS(=O)(=O)CC3)cc1)CC2 | 2.2 | 3.6 | 4 (≈ 2.57 µg/mL) | > 50 | > 50 | – | – |
| O=C(NC1CC1)c1cc2c(s1)-c1ccccc1N(C(=O)N1CCC(NC(=O)c3cccnc3N3CCCC3)CC1)CC2 | – | 14 | 26 (≈ 15.2 µg/mL) | – | – | > 50 | – |
| O=C(NC1CC1)c1cc2c(s1)-c1ccccc1N(C(=O)c1ccc(NC(=O)c3ncccc3N3CCC4(CC3)COC4)cc1)CC2 | 0.47 | 0.35 | < 1 | 49 | 43 | – | – |
| O=C(NC1CC1)c1cc2c(s1)-c1ccccc1N(C(=O)c1ccc(NC(=O)c3cccnc3N3CCCC3)nc1)CC2 | > 50 | > 50 | 3 (≈ 1.74 µg/mL) | > 50 | – | > 50 | – |
| O=C(NC1CC1)c1cc2c(s1)-c1ccccc1N(C(=O)[C@H]1C[C@@H](NC(=O)c3cccnc3N3CCCC3)C1)CC2 | – | > 50 | 2 (≈ 1.11 µg/mL) | – | – | > 50 | – |
| O=C(NC1CC1)c1cc2c(s1)-c1ccccc1N(C(=O)c1ccc(NC(=O)c3cccnc3N3CCCC3)cc1)CC2 | 0.15 | 0.31 | < 1 | > 50 | > 50 | > 50 | – |
| O=C(NC1CC1)c1cc2c(s1)-c1ccccc1N(C(=O)c1ccc(NC(=O)c3cccnc3N3CCN(CCO)CC3)cc1)CC2 | 8 | 13 | 40 (≈ 25.5 µg/mL) | > 50 | > 50 | – | – |
| O=C(NC1CC1)c1cc2c(s1)-c1ccccc1N(C(=O)c1ccc(NC(=O)c3cccnc3N3CC[S+]([O-])CC3)cc1)CC2 | 9.6 | 12 | 26 (≈ 16.3 µg/mL) | > 50 | > 50 | – | – |
| O=C(NC1CC1)c1cc2c(s1)-c1ccccc1N(C(=O)c1ccc(NC(=O)c3cccnc3N3CCCC3)cn1)CC2 | 2.4 | 3.7 | 3 (≈ 1.74 µg/mL) | > 50 | – | > 50 | – |
| O=C(NC1CC1)c1cc2c(s1)-c1ccccc1N(C(=O)[C@H]1CC[C@H](NC(=O)c3cccnc3N3CCCC3)CC1)CC2 | – | > 50 | 11 (≈ 6.42 µg/mL) | – | – | > 50 | – |
| O=C(NC1CC1)c1cc2c(s1)-c1ccccc1N(C(=O)c1ccc(NC(=O)c3cccnc3N3CC4(CCOCC4)C3)cc1)CC2 | 0.01 | < 0.007 | < 1 | 0.5 | > 50 | – | – |
| O=C(NC1CC1)c1cn2c(n1)-c1ccccc1N(C(=O)c1ccc(NC(=O)c3cccnc3N3CCCC3)cc1)CC2 | 50 | 22 | 121 (≈ 68 µg/mL) | 50 | – | > 50 | – |
| O=C(NC1CC1)c1cc2c(s1)-c1ccccc1N(C(=O)c1ccc(NC(=O)c3ccncc3N3CCC4(CC3)COC4)cc1)CC2 | < 0.21 | 0.16 | < 1 | 5.1 | 4.8 | – | – |
| CC(=O)N1CC2(CCN(c3ncccc3C(=O)Nc3ccc(C(=O)N4CCc5cc(C(=O)NC6CC6)sc5-c5ccccc54)cc3)CC2)C1 | 5.3 | 9 | 4 (≈ 2.7 µg/mL) | 39 | 34 | – | – |
| COc1ccc(C(=O)Nc2ccc(C(=O)N3CCc4cc(C(=O)NC5CC5)sc4-c4ccccc43)cc2)c(N2CCC3(CC2)COC3)n1 | < 0.21 | 0.02 | < 1 | 1.8 | > 50 | – | – |
| O=C(NC1CC1)c1cc2n(n1)CCN(C(=O)c1ccc(NC(=O)c3cccnc3N3CCCC3)cc1)c1ccccc1-2 | 20 | 9 | 32 (≈ 18 µg/mL) | 50 | – | > 50 | – |
| CN(C)CC1(O)CN(c2ncccc2C(=O)Nc2ccc(C(=O)N3CCc4cc(C(=O)NC5CC5)sc4-c4ccccc43)cc2)C1 | > 50 | > 50 | > 100 | > 50 | > 50 | – | – |
| O=C(NC1CC1)c1cc2c(s1)-c1ccccc1N(C(=O)c1ccc(NC(=O)c3cccnc3N3CCC4(CCOCC4)CC3)cc1)CC2 | 0.03 | 0.04 | < 1 | 2.2 | > 50 | – | – |
| O=C(NC1CC1)c1cc2c(s1)-c1ccccc1N(C(=O)c1ccc(NC(=O)c3cnccc3N3CCC4(CC3)COC4)cc1)CC2 | 0.68 | 0.57 | 9 (≈ 5.7 µg/mL) | 14 | 34 | – | – |
| O=C(NC1CC1)c1cc2c(s1)-c1ccccc1N(C(=O)c1ccc(NC(=O)c3cccnc3N3CCC4(CC3)COC4)cc1)CC2 | 0.01 | 0.01 | 2 (≈ 1.27 µg/mL) | 1 | > 50 | – | < 1 |
| O=C(NC1CC1)c1cc2c(s1)-c1cnccc1N(C(=O)c1ccc(NC(=O)c3cccnc3N3CCCC3)cc1)CC2 | 1.1 | 2.2 | 1 (≈ 0.579 µg/mL) | > 50 | – | > 50 | – |
| O=C(NC1CC1)c1cc2c(s1)-c1cccnc1N(C(=O)c1ccc(NC(=O)c3cccnc3N3CCCC3)cc1)CC2 | 7.8 | 8.6 | 10 (≈ 5.79 µg/mL) | > 50 | – | > 50 | – |
| O=C(NC1CC1)c1cc2c(s1)-c1ccccc1N(C(=O)[C@H]1C[C@H](NC(=O)c3cccnc3N3CCCC3)C1)CC2 | – | 16 | 3 (≈ 1.67 µg/mL) | – | – | > 50 | – |
